Among the test systems are SF-539 CNS; UACC-257 melanoma; DU-145 prostate; SW-620 colon; SK-OV-3 ovarian; RXF 393 renal; K-562 leukemia; OVCAR-4 ovarian; UO-31 renal.
Common to all, as to test: inhibition of tumour cell growth, NCI panel, 48 h

Molecules are shown by their SMILES.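 In this assay, cells in 96-well plates receive the compound at five concentrations for 48 hours. Endpoints are linearly interpolated between the surrounding concentrations. GI50: concentration for 50% inhibition of growth. TGI is the concentration that stops growth completely.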

For the molecule `COc1cc2c(cc1OC)-c1[nH]c3ccc([N+](=O)[O-])cc3c1CC(=O)N2`, the TGI was 0.716 µM with SF-539 CNS; 47.1 µM with UACC-257 melanoma; greater than 100 µM in the assay on DU-145 prostate; greater than 100 µM in the assay on SW-620 colon; greater than 29.8 µM in the assay with SK-OV-3 ovarian; 4.82 µM in the assay on RXF 393 renal. For the same molecule, the TGI is greater than 100 µM in the assay on K-562 leukemia, greater than 32.1 µM in the assay on OVCAR-4 ovarian and greater than 23.8 µM with UO-31 renal.
Turning to `COc1c(C)c(C/C=C(\C)CCCCO)c(OC)c2ccccc12`, the TGI in the assay on SF-539 CNS, in the assay on UACC-257 melanoma, with DU-145 prostate, in the assay with SW-620 colon, in the assay with SK-OV-3 ovarian and in the assay on RXF 393 renal was greater than 100 µM throughout. Besides, the TGI in the assay on K-562 leukemia is 67.1 µM; in the assay with OVCAR-4 ovarian, greater than 100 µM; with UO-31 renal, greater than 100 µM.
As to `COC(=O)C1Cc2c([nH]c3ccccc23)-c2[nH]c3ccccc3c2CC(NC(C)=O)C(=O)N2CCCC2C(=O)N1` (configuration not stated), the TGI with SF-539 CNS, with UACC-257 melanoma, in the assay with DU-145 prostate, with SW-620 colon, in the assay on SK-OV-3 ovarian and in the assay with RXF 393 renal was greater than 100 µM in each case. For the same molecule, the TGI in the assay on K-562 leukemia, in the assay with OVCAR-4 ovarian and in the assay with UO-31 renal was greater than 100 µM each time.
Consider `O=C1c2c(F)c(F)c(F)c(F)c2SC2=Nc3cccc4cccc(c34)N12`, for which the TGI amounted to 14 µM with SF-539 CNS; 13.2 µM in the assay with UACC-257 melanoma; 24.9 µM in the assay on DU-145 prostate; 12 µM with SW-620 colon; 23.2 µM in the assay on SK-OV-3 ovarian; 11.1 µM with RXF 393 renal. The TGI amounted to 4.49 µM in the assay on K-562 leukemia, 9 µM in the assay with OVCAR-4 ovarian and 21.7 µM in the assay with UO-31 renal.
`CN(C)C=Nc1c2c(nc3ccccc13)CCCC2`: the TGI with SF-539 CNS, with UACC-257 melanoma, in the assay with DU-145 prostate, in the assay on SK-OV-3 ovarian, with RXF 393 renal and in the assay on K-562 leukemia was greater than 100 µM throughout. In addition, the TGI in the assay on OVCAR-4 ovarian and in the assay on UO-31 renal was greater than 100 µM in each case.
Take `Cc1csc2c(=O)n(COCc3ccccc3)c(=O)[nH]c12`: the TGI with SF-539 CNS, with UACC-257 melanoma, in the assay on DU-145 prostate, in the assay on SW-620 colon, in the assay with RXF 393 renal and in the assay on K-562 leukemia was greater than 100 µM in each case. Besides, the TGI with OVCAR-4 ovarian and with UO-31 renal was greater than 100 µM each time.
On to `COC(=O)[C@@H](NC(=O)c1ccc(CNC(=O)/C(C)=C/c2ccccc2)cc1)C(C)C`, for which the TGI in the assay on SF-539 CNS was greater than 100 µM; with UACC-257 melanoma, 39 µM; with DU-145 prostate, greater than 100 µM; with SW-620 colon, greater than 100 µM; in the assay on SK-OV-3 ovarian, greater than 100 µM; in the assay with RXF 393 renal, greater than 100 µM. Besides, the TGI in the assay on K-562 leukemia, in the assay with OVCAR-4 ovarian and in the assay on UO-31 renal was greater than 100 µM each time.
Turning to `Clc1ccc(Nc2nnc(CNc3ccc(-c4nnc(Nc5ccc(Cl)cc5)o4)cc3)o2)cc1`, the TGI stood at 36.3 µM in the assay on SF-539 CNS; 50.6 µM with UACC-257 melanoma; 26.2 µM with DU-145 prostate; 51.2 µM with SW-620 colon; 49.7 µM in the assay on SK-OV-3 ovarian; 34.6 µM in the assay with RXF 393 renal. In addition, the TGI in the assay with K-562 leukemia is greater than 100 µM; in the assay with OVCAR-4 ovarian, 42.6 µM; in the assay on UO-31 renal, 35.2 µM.
Consider `O=C(NCCCc1cn[nH]c(=O)n1)c1cccc2nc3ccccc3nc12`, for which the TGI in the assay with SF-539 CNS, with UACC-257 melanoma, in the assay on DU-145 prostate, in the assay on SW-620 colon, in the assay on SK-OV-3 ovarian and in the assay with RXF 393 renal was greater than 100 µM in each case. The TGI in the assay on K-562 leukemia and with OVCAR-4 ovarian was greater than 100 µM throughout.
For the molecule `Cc1cc2c(cc1-c1cc3c(cc1C)C(C(C)C)=C(O)C(=O)/C3=C\Nc1ccccn1)/C(=C/Nc1ccccn1)C(=O)C(O)=C2C(C)C`, the TGI with SF-539 CNS, in the assay with UACC-257 melanoma, with DU-145 prostate, with SW-620 colon, with RXF 393 renal and in the assay with K-562 leukemia was greater than 100 µM in each case. This molecule displayed a TGI in the assay with OVCAR-4 ovarian greater than 100 µM.
Regarding `N#Cc1c(O)c(C=O)c(=O)n2c1[nH]c1ccccc12`, the TGI in the assay with SF-539 CNS, in the assay with UACC-257 melanoma, in the assay on DU-145 prostate, with SW-620 colon, in the assay on SK-OV-3 ovarian and with RXF 393 renal was greater than 100 µM throughout. Also, the TGI in the assay with K-562 leukemia, with OVCAR-4 ovarian and with UO-31 renal was greater than 100 µM in each case.
In the case of `CN1C(=O)[C@@H]2[C@@H]3c4ccccc4N[C@@H]3c3[nH]c4ccccc4c3[C@@H]2C1=O`, the TGI in the assay with SF-539 CNS was 39.3 µM; in the assay on UACC-257 melanoma it was 48.9 µM; in the assay on DU-145 prostate, greater than 100 µM; in the assay with SW-620 colon it was greater than 100 µM; with SK-OV-3 ovarian, 66.7 µM; in the assay on RXF 393 renal, 64.4 µM. The TGI in the assay with K-562 leukemia came to 74.7 µM; in the assay on OVCAR-4 ovarian it was 54.3 µM; in the assay on UO-31 renal it was 43.9 µM.
As to `CC(=O)CC12NC(=O)N(C)N=C1N(C)C(=O)N(C)C2=O` (configuration not stated), the TGI with SF-539 CNS was 72.9 µM; in the assay with UACC-257 melanoma, 40.4 µM; with DU-145 prostate it was greater than 100 µM; in the assay on SW-620 colon, greater than 100 µM; in the assay with SK-OV-3 ovarian it was greater than 100 µM; with RXF 393 renal it was greater than 100 µM. In addition, the TGI in the assay on K-562 leukemia, with OVCAR-4 ovarian and in the assay with UO-31 renal was greater than 100 µM each time.
Take `O=C(CBr)NCCc1c[nH]c2ccccc12`: the TGI worked out at 3.52 µM with SF-539 CNS; 8.54 µM in the assay on UACC-257 melanoma; 4.19 µM in the assay with DU-145 prostate; 7.71 µM in the assay on SW-620 colon; 7.31 µM in the assay with SK-OV-3 ovarian; 2.41 µM with RXF 393 renal. For the same molecule, the TGI was determined as 8.41 µM in the assay on K-562 leukemia, 4 µM with OVCAR-4 ovarian and 3.2 µM in the assay on UO-31 renal.
Consider `COc1cccc(/C=N/NC(=O)CN(C)C)c1O`, for which the TGI in the assay on SF-539 CNS, with UACC-257 melanoma, in the assay on DU-145 prostate, in the assay on SW-620 colon, in the assay with SK-OV-3 ovarian and in the assay with RXF 393 renal was greater than 100 µM each time. The TGI in the assay on K-562 leukemia, in the assay with OVCAR-4 ovarian and in the assay on UO-31 renal was greater than 100 µM throughout.
Take `O=C1C(c2c(O)[nH]c3ccc(I)cc23)=Nc2ccccc21`: the TGI in the assay with SF-539 CNS was 23.3 µM; with UACC-257 melanoma it was greater than 75.1 µM; in the assay with DU-145 prostate, greater than 100 µM; in the assay on SW-620 colon, greater than 56.7 µM; in the assay on SK-OV-3 ovarian it was 22.8 µM; in the assay with RXF 393 renal it was 34.6 µM. For the same molecule, the figures for the TGI in the assay on K-562 leukemia, in the assay with OVCAR-4 ovarian and with UO-31 renal were greater than 100 µM, greater than 44.7 µM and 14.4 µM, respectively.
On to `COC(=O)C1=C(C)NC2=C(C(=O)c3ccccc32)C1c1cn[nH]c1-c1ccccc1` (configuration not stated), for which the TGI in the assay on SF-539 CNS, with UACC-257 melanoma, in the assay on DU-145 prostate, in the assay on SW-620 colon, in the assay on SK-OV-3 ovarian and with RXF 393 renal was greater than 100 µM each time. The TGI with K-562 leukemia, with OVCAR-4 ovarian and with UO-31 renal was greater than 100 µM in each case.
As to `c1ccc(Sc2nc(Sc3ccccc3)nc(Sc3ccccc3)n2)cc1`, the TGI with SF-539 CNS was greater than 100 µM; with UACC-257 melanoma, greater than 100 µM; with DU-145 prostate it was 47.1 µM; in the assay with SK-OV-3 ovarian, greater than 100 µM; with RXF 393 renal, greater than 100 µM; with K-562 leukemia, greater than 100 µM. For the same molecule, the TGI in the assay on OVCAR-4 ovarian and in the assay with UO-31 renal was greater than 100 µM in each case.
For the molecule `CCOC(=O)C(NC(=O)c1ccccc1)(Nc1ccc(S(=O)(=O)Nc2ccc(OC)nn2)cc1)C(F)(F)F` (configuration not stated), the TGI in the assay with SF-539 CNS, in the assay on UACC-257 melanoma, with DU-145 prostate, in the assay with SW-620 colon, with SK-OV-3 ovarian and in the assay with RXF 393 renal was greater than 100 µM each time. The TGI with K-562 leukemia, with OVCAR-4 ovarian and in the assay with UO-31 renal was greater than 100 µM each time.
For `COc1cc(/C=C/c2ccc(S(N)(=O)=O)cc2)cc(OC)c1`, the GI50 is 18.8 µM in the assay on SF-539 CNS, 28.7 µM with K-562 leukemia and 21.2 µM in the assay on OVCAR-4 ovarian. The TGI was determined as 46.2 µM in the assay on SF-539 CNS; 46.8 µM in the assay with UACC-257 melanoma; 72.8 µM in the assay on DU-145 prostate; 75.7 µM in the assay on SK-OV-3 ovarian; 34.1 µM in the assay on RXF 393 renal; 76.7 µM in the assay with K-562 leukemia. The TGI with OVCAR-4 ovarian worked out at 50.9 µM; with UO-31 renal it was 52 µM.
As to `CCOC(=O)[C@H](CO)Nc1c(O)c2c(c(O)c1Cl)C(=O)C=CC2=O`, the TGI with SF-539 CNS, with UACC-257 melanoma, with DU-145 prostate, in the assay with SW-620 colon, with SK-OV-3 ovarian and in the assay with RXF 393 renal was greater than 10 µM in each case. Moreover, the TGI in the assay with K-562 leukemia and with OVCAR-4 ovarian was greater than 10 µM throughout.
With `COc1cc(/C=C/C2=NN(c3cccc(S(=O)(=O)O)c3)C3(C2)SCC(=O)N3c2nc3ccccc3s2)cc(OC)c1OC` (configuration not stated), the TGI in the assay with SF-539 CNS, with UACC-257 melanoma, with DU-145 prostate, in the assay with SW-620 colon, in the assay on RXF 393 renal and with K-562 leukemia was greater than 100 µM each time. Further, the TGI in the assay with OVCAR-4 ovarian and in the assay with UO-31 renal was greater than 100 µM throughout.

The record behind these values is PubChem BioAssay (NCI).
